Patent publication US20120029167A1, “AUTO MAGNETIC METAL SALEN COMPLEX COMPOUND” (Yoshihiro Ishikawa, priority 2008, published 2012)

Assays:
[1] = 37° C. (310K) magnetic field-magnetization curve using MPMS7 (Quantum Design); format: physicochemical; settings: for magnetic field at which magnetization is greater in comparison to the Fe-salen / magnetic properties from magnetic field-magnetization curve: 37° C. (310K); for magnetization compared among Fe-, Mn-, Cr-, Co-salen: magnetic field 10000 Oe (1 T) or more
Experimental: As a result of measuring the 37° C.
The summary of the results of the 37° C. (310K) magnetic field-magnetization curve of the Fe-salen complex, the Mn-salen complex, the Cr-salen complex, and the Co-salen complex is shown in FIG. 4.
In comparison to the Fe-salen, the Co-salen yields greater magnetization at a magnetic field of 10000 Oe (1 T (tesla)) or more. In comparison to the Fe-salen, the Mn-salen yields greater magnetization at a magnetic field of 30000 Oe (3 T (tesla)) or more.
Nevertheless, if the magnetic field is 10000 Oe (1 T (tesla)) or more, the magnetization of the Co-salen and Mn-salen complex is the greatest and is optimal for a magnetic field drug delivery system which uses a superconducting magnet.

rat L6 cells = assay: Rat L6 cell culture in square flask with magnet, number of cells after 48 hours; format: cell-based; settings: powder sprinkled on culture medium, L6 cells confluent at 30%, bar magnet
Experimental: The respective metal salen complex powders of the Fe-salen complex, the Mn-salen complex, the Cr-salen complex, and the Co-salen complex obtained with the foregoing method were sprinkled on a culture medium in an amount that where such powder can be visually confirmed to be drawn to the magnet in a state where the rat L6 cells are confluent at 30%, and a photograph of the state of the culture medium after 48 hours was taken.
Subsequently, a photograph was taken from one end to the other end of the bottom face of the square flask after 48 hours, and the results of calculating the number of cells are shown in FIG. 6. […]
Shown is a state where the bar magnet was caused to come in contact with a square flask as the culture medium of the rat L6 cells. Subsequently, a photograph was taken from one end to the other end of the bottom face of the square flask after 48 hours, and the number of cells was calculated. […]
Shown is a state where the bar magnet was caused to come in contact with a square flask as the culture medium of the rat L6 cells. Subsequently, a photograph was taken from one end to the other end of the bottom face of the square flask after 48 hours, and the number of cells was calculated.

SMILES	magnetic field at which magnetization is greater in comparison to the Fe-salen [1] [Oe]	magnetic properties from magnetic field-magnetization curve [1]	magnetization compared among Fe-, Mn-, Cr-, Co-salen [1]	number of cells proximal from the magnet versus distal (rat L6 cells)
[Co+2].[O-]c1ccccc1C=NCCN=Cc1ccccc1[O-] [Co-salen complex]	≥ 10000	paramagnetic properties were observed	the greatest	–
[Cr+2].[O-]c1ccccc1C=NCCN=Cc1ccccc1[O-] [Cr-salen complex]	–	paramagnetic properties were observed	–	–
Oc1ccccc1C=NCCN=Cc1ccccc1O.[Mn] [Mn-salen complex]	≥ 30000	paramagnetic properties were observed	the greatest	number of cells is extremely lower than the distal
